# Test results published in patent publication US6403594B1, “Benzopyran derivatives” (Recordati, S.A. Chemical and Pharmaceutical Company, priority 1999, dated 2002).
# Tests used:
# [1] = biological target: T1, α1d-adrenoceptor (recombinant) (Homo sapiens, UniProt P25100); assay: Radioligand binding, cloned α1d-adrenoceptor ([3H]prazosin); conditions: read-out: Affinity for recombinant α1d-adrenoceptor, cloned receptors (Ki)
# T1 sequence (P25100 1-572): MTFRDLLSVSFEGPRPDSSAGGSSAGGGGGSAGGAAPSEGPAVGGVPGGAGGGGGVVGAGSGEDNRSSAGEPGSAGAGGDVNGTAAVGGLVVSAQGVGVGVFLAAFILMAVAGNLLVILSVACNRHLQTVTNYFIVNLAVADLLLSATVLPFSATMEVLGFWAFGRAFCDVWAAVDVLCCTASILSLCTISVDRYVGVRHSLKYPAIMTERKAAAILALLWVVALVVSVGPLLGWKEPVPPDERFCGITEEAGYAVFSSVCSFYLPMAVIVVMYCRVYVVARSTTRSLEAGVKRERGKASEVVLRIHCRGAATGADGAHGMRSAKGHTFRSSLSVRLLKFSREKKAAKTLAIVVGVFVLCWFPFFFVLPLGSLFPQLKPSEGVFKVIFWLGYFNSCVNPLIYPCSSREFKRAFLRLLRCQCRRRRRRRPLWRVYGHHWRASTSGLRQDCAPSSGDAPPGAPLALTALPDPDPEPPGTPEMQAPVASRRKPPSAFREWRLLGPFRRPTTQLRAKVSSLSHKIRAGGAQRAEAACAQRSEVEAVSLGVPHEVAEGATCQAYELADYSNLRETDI
# [2] = biological target: T2, α1a-adrenoceptor (recombinant) (Homo sapiens, UniProt P35348); assay: Radioligand binding, cloned α1a-adrenoceptor ([3H]prazosin); conditions: read-out: Affinity for recombinant α1a-adrenoceptor, cloned receptors (Ki)
# T2 construct: expressed in transfected cells
# T2 sequence (P35348 1-466): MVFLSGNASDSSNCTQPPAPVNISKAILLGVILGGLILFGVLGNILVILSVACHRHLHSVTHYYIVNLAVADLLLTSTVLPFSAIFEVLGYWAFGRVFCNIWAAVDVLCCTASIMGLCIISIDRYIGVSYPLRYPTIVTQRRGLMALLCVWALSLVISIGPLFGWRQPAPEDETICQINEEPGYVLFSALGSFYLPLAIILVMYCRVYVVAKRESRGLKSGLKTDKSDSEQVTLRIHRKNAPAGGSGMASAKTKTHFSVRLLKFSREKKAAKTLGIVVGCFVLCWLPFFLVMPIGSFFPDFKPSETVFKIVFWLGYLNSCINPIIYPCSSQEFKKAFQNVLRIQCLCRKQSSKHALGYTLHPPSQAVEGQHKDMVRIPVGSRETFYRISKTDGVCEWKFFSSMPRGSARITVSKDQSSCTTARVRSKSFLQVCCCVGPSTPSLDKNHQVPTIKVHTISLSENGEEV
# [3] = system: prostatic urethral pressure increase induced by noradrenaline; assay: Inhibition of urethral contractions induced by noradrenaline in anaesthetised dogs after i.v. administration; assay type: in vivo, dog; conditions: for UC ID50: active dose inhibiting by 50% the urethral contractions induced by noradrenaline: i.v. administration; for DBP/UC ratio between the active doses: i.v., DBP ED25 / UC ID50
# Experimental: The experiments were performed according to the method of Imagawa J. et al., J. Pharmacol. Methods 22: 103-111, 1989, with substantial modifications, as follows: adult male beagle dogs, weighing 8-10 kg, were anaesthetised with pentobarbital sodium (30 mg/kg i.v. and 2 mg/kg/h i.v.), intubated and spontaneously ventilated with room air. In order to monitor systemic blood pressure (BP), a polyethylene (PE) catheter was introduced into the aortic arch through the left femoral artery. A collateral of the left femoral vein was cannulated for infusion of anaesthetic, and the right femoral vein was cannulated for administration of compounds. For intra-arterial (i.a.) injection of noradrenaline (NA), a PE catheter was introduced into the lower portion of the abdominal aorta via the right external iliac artery. Through such procedure, NA was selectively distributed to the lower urinary tract. A paramedian vertical suprapubic incision extending from the base of the pelvis to the mid-abdominal region was made and the bladder and prostate were exposed. The bladder was manually emptied with a syringe. Prostatic urethral pressure was monitored with a Mikro-tip catheter (5F) introduced into the bladder via the external urethral meatus, and withdrawn until the pressure transducer was positioned in the prostatic region of the urethra. A ligature was secured between the neck of the bladder and urethra to isolate the response of the latter and to avoid any interaction with the bladder. Another ligature was put around the Mikro-tip catheter at the external meatus, to secure the catheter itself. After a stabilising period following the surgical procedure (30 minutes), in which arterial and prostatic urethral pressure were continuously monitored as basal values, i.a. administration of NA was made at intervals of 20 minutes. The doses of NA chosen were such to produce an increase of at least 100% in urethral pressure. The test compounds were administered i.v. in a cumulative manner with intervals of 15-20 minutes between administrations. I.a. injections of NA were repeated 5 minutes after every dosing of test compound with intervals of about 10 minutes between stimulations. In order to compare the effects of the administered compound, dose/response curves (log dose transformation) were constructed by computing, at the peak effect, the percent decrease in diastolic blood pressure and the percent inhibition of the increase in urethral pressure induced by NA.
# [4] = biological target: T3, 5HT1A-serotoninergic receptor (Homo sapiens, UniProt P08908); assay: Radioligand binding, cloned 5-HT1A-serotoninergic receptor in HeLa membranes ([3H]8-OH-DPAT); parameters: expressed in transfected cells; host or cells: HeLa; conditions: cloned human 5-HT1A receptor in HeLa membranes, mean Ki, read-out: Affinity for 5-HT1A receptor, cloned receptors (Ki)
# T3 sequence (P08908 1-422): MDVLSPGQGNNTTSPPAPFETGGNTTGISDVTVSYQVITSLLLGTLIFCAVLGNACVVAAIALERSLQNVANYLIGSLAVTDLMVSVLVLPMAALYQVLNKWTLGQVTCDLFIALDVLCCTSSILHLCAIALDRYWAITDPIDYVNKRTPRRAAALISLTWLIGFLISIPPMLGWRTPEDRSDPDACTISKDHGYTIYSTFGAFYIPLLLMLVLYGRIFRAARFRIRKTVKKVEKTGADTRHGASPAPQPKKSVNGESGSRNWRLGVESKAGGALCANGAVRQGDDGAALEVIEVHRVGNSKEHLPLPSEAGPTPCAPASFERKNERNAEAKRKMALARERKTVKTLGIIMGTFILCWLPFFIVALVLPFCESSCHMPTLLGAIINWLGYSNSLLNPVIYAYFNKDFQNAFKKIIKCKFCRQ
structure (smiles),measurement,setting,value
"CCOC(=O)c1oc2c(C(=O)NCCCN3CCN(c4cc(Cl)ccc4OC)CC3)cccc2c(=O)c1C [Example 4, 2-Ethoxycarbonyl-8-{3-[4-(5-chloro-2-methoxyphenyl)-1-piperazinyl]-propylcarbamoyl}-3-methyl-4-oxo-4H-1-benzopyran]",Ki,[1],2.75 nM
same,Ki,[2],0.21 nM
same,UC ID50: active dose inhibiting by 50% the urethral contractions induced by noradrenaline,[3],2.3 µg/kg
same,DBP/UC ratio between the active doses,[3],71.0
same,Ki,[4],15.2 nM
"COc1ccc(Cl)cc1N1CCN(CCCNC(=O)c2cccc3c(=O)c(C)c(C(N)=O)oc23)CC1 [Example 1, 2-Carbamoyl-8-{3-[4-(5-chloro-2-methoxyphenyl)-1-piperazinyl]-propylcarbamoyl}-3-methyl-4-oxo-4H-1-benzopyran]",Ki,[1],57.4 nM
same,Ki,[2],2.4 nM
same,UC ID50: active dose inhibiting by 50% the urethral contractions induced by noradrenaline,[3],11.8 µg/kg
same,DBP/UC ratio between the active doses,[3],234.7
same,Ki,[4],17.2 nM
